Laboratory results as given in US12575568B2, “Composition for promoting the growth of legumes” (CH BIOTECH R&D CO., LTD., priority 2022, dated 2026).

Tests used:
Type in all cases: in vivo, Alfalfa (Medicago sativa L.)
alfalfa plants [1] = test: Example 3 efficacy test on alfalfa with or without Rhizobium inoculation: shoot weight, leaf area, root dry weight; details: Day 12 after foliar spray
Description: Five (5) seeds were sown in one pot. Alfalfa plants were randomly divided into 6 groups, in which Groups 1 to 3 were not inoculated with Rhizobium, and Groups 4 to 6 were inoculated with Rhizobium. Rhizobium inoculation was the same as described in Example 2. After inoculation, the pots were placed in a phytotron, which was operated at 25/23° C. day/night temperature and on a 16/8 h light/dark cycle. Two (2) weeks after sowing (V2 stage), alfalfa plants were applied with the reagents listed in Table 6 once at a rate of 10 mL/12 pots using a foliar spray treatment. The reagents were applied once in total during the test period. [table] Twelve (12) days after the application of reagents, 12 alfalfa plants from each group (N=12) were randomly selected for phenotype observation, and the shoot fresh weight of the collected samples was measured. Then, the collected samples were dried at 50° C. overnight, and the shoot dry weight was measured. Twelve (12) days after the application of reagents, 6 alfalfa plants from each group (N=6) were randomly selected. All the trifoliate leaves of the selected plants were collected and numbered in sequence from bottom to top. The leaf area of all the trifoliate leaves of each alfalfa plant was measured by a leaf analyzer ([…]2400, Regent Instruments Inc.). Twelve (12) days after the application of reagents, 4 alfalfa plants from each group (N=4) were randomly selected. The collected samples were dried at 50° C. overnight, and then the root dry weight was measured. Average and standard error (SE) of each group were calculated.

[2] = test system: glutamate synthase (GOGAT); test: Example 3 activity of glutamate synthase (GOGAT) of alfalfa leaves; details: 12 days after application; Groups 2-3 without, Groups 4-6 with Rhizobium
Description: Alfalfa (Medicago sativa L.) seeds were sown in 3.5-inch pots containing culture medium (peat soil:vermiculite=1:1). Five (5) seeds were sown in one pot. Alfalfa plants were randomly divided into 6 groups, in which Groups 1 to 3 were not inoculated with Rhizobium, and Groups 4 to 6 were inoculated with Rhizobium. Rhizobium inoculation was the same as described in Example 2. After inoculation, the pots were placed in a phytotron, which was operated at 25/23° C. day/night temperature and on a 16/8 h light/dark cycle. Two (2) weeks after sowing (V2 stage), alfalfa plants were applied with the reagents listed in Table 6 once at a rate of 10 mL/12 pots using a foliar spray treatment. The reagents were applied once in total during the test period. [table] Twelve (12) days after the application of reagents, 4 alfalfa plants from each group (N=4) were randomly selected. The third trifoliate leaves of the selected plants were collected to determine GOGAT activity by the following method. […] The GOGAT activity is determined by NADH reduction through measuring fluorescence intensity at excitation/emission wavelengths of 340/445 nm. […] Average and standard error (SE) of each group were calculated.

alfalfa plants [3] = test: Example 3 nitrogen content of alfalfa leaves; details: 12 days after application; Groups 4-6 Rhizobium inoculated; p<0.001
Description: Alfalfa (Medicago sativa L.) seeds were sown in 3.5-inch pots containing culture medium (peat soil:vermiculite=1:1). Five (5) seeds were sown in one pot. Alfalfa plants were randomly divided into 6 groups, in which Groups 1 to 3 were not inoculated with Rhizobium, and Groups 4 to 6 were inoculated with Rhizobium. Rhizobium inoculation was the same as described in Example 2. After inoculation, the pots were placed in a phytotron, which was operated at 25/23° C. day/night temperature and on a 16/8 h light/dark cycle. Two (2) weeks after sowing (V2 stage), alfalfa plants were applied with the reagents listed in Table 6 once at a rate of 10 mL/12 pots using a foliar spray treatment. The reagents were applied once in total during the test period. [table] Twelve (12) days after the application of reagents, 4 alfalfa plants from each group (N=4) were randomly selected. The first to fifth trifoliate leaves of the selected plants were collected, air-dried at 50° C. overnight and then ground into powder. […] Average and standard error (SE) of each group were calculated.

[4] = Groups 2-3 without, Groups 4-6 with Rhizobium
[5] = Groups 4-6 Rhizobium inoculated
[6] = Groups 4-6 Rhizobium inoculated, Group 1 no Rhizobium, no actives

NCCCC(=O)O [Group 4, γ-aminobutyric acid (GABA)]
Leaf Area, Sum of trifoliate leaves (alfalfa plants [1]; [4]): 6.27 cm^2/plant
Leaf Area, trifoliate leaf number 1 (alfalfa plants [1]; [4]): 0.90 cm^2/plant
Leaf Area, trifoliate leaf number 2 (alfalfa plants [1]; [4]): 1.03 cm^2/plant
Leaf Area, trifoliate leaf number 3 (alfalfa plants [1]; [4]): 1.01 cm^2/plant
Leaf Area, trifoliate leaf number 4 (alfalfa plants [1]; [4]): 0.85 cm^2/plant
Leaf Area, trifoliate leaf number 5 (alfalfa plants [1]; [4]): 0.87 cm^2/plant
Leaf Area, trifoliate leaf number 6 (alfalfa plants [1]; [4]): 0.93 cm^2/plant
Leaf Area, trifoliate leaf number 7 (alfalfa plants [1]; [4]): 0.52 cm^2/plant
Leaf Area, trifoliate leaf number 8 (alfalfa plants [1]; [4]): 0.17 cm^2/plant
Leaf Area, trifoliate leaf number 9 (alfalfa plants [1]; [4]): 0.00 cm^2/plant
increase of leaf area compared with Group 1 (alfalfa plants [1]; [4]): 64%
root dry weights compared with Group 1 (alfalfa plants [1]; [4]): higher
increase of trifoliate leaves compared with Group 1 (alfalfa plants [1]; [5]): 2 trifoliate leaves
plant height compared with Group 1 (words, FIG. 12) (alfalfa plants [1]; [5]): higher
increase of shoot dry weight compared with Group 1 (alfalfa plants [1]; [6]): 52.9%
increase of shoot fresh weight compared with Group 1 (alfalfa plants [1]; [6]): 66.5%
increase of GOGAT activity in the leaves compared with Group 1 [2]: 13.5%
increase of nitrogen content in the leaves compared with Group 1 (alfalfa plants [3]): 115.8%
